How the values were obtained:
Type in all cases: biochemical
inducible human NOS = target: T1, inducible human NOS (Homo sapiens, UniProt P35228); experiment: Inhibition of inducible human NOS (citrulline formation), enzyme from cytokine-induced DLD-1 cells; conditions: NOS from cytokine-induced DLD-1 cells; 1 μM L-[14C] arginine; pH 7.4; 10 μM FAD, no calmodulin/CaCl2
T1 construct: Purification of NOS cytokine-induced human colorectal adenocarcinoma DLD-1 cells; host or cells: DLD-1 cells induced with interferon-gamma, interleukin-6, tumor necrosis factor and interleukin-1beta; 2',5' ADP Sepharose purified
Procedure: (§1) NOS was assayed for the formation of citrulline following the procedure of Schmidt et al (PNAS 88 365-369, 1991) with these modifications: 20 mM Hepes, pH 7.4, 10 μg/ml calmodulin, 2.5 mM CaCl2 2.5 mM DTT, 125 μM NADPH 10 μM H4 Biopterin, 0.5 mg/ml BSA, and 1 μM L-[^14 C] arginine (New England Nuclear). Linearity of NOS-catalyzed rate was confirmed prior to kinetic studies that used single time point determination of rate.
Purification of NOS cytokine-induced human colorectal adenocarcinoma DLD-1 cells.
DLD-1 (ATCC No. CCL 221) were grown at 37° C., 5% CO2 in RPMI 1640 medium supplemented with L- glutamin, penicillin, streptomycin, and 10% heat-inactivated fetal bovine serum. Cells were grown to confluency and then the following cocktail of cytokines were added: 100 units/ml interferon-gamma, 200 units/ml interleukin-6, 10 ng/ml tumor necrosis factor, and 0.5 ng/ml interieukin-1β. At 10-24 hr post-induction, cells were harvested by scraping and washed with phosphate-buffered saline. Pelleted cells were stored at -70° C. Purification of the induced NOS was performed at 4° C. Crude extract was prepared by three cycles of freeze/thawing cells in TDGB (20 mM tris pH 7.5, 10% glycerol, 1 mM DTT, 2 μM tetrahydrobiopterin). Extract was applied directly onto a column of 2',5' ADP sepharse (Pharmacia). Resin was sequentially washed with TDGB, 0.5 M NaCl in TDGB, TDGB. NOS was eluted with 2 mM NADPH in TDGB. BSA was immediately added to give a final concentration of 1 mg/ml. NOS could be quick frozen and stored at -70° C. without loss in activity for at least 2 months.
Assay for inducible human NOs.
The formation of citrulline was assayed as described above except that 10 μM FAD was included and calmodulin and CaCl2 were excluded from the assay mix.

human placental NOS = target: T2, human placental NOS (Homo sapiens, UniProt P29474); experiment: Inhibition of human placental NOS (citrulline formation); conditions: 1 μM L-[14C] arginine; pH 7.4; calmodulin, CaCl2
T2 construct: Purification of NOS from human placenta; from tissue; host or cells: fresh human placenta, amnion and chorion removed; ammonium sulfate and 2',5' ADP agarose purified
Procedure: It is noted that the NO synthase isolated from human placenta most probably represents the endothelial constitutive isoenzyme.
Purification of NOS from human placenta.
Amion and chorion were removed from fresh placenta, which was then rinsed with 0.9% NaCl. The tissue was homogenized in a Waring blender in 3 volumes of HEDS buffer (20 mM Hepes pH 7.8, 0.1 mM EDTA, 5 mM DTT, 0.2M sucrose) plus 0.1 mM PMSF.
The homogenate was filtered through cheesecloth and then centrifuged at 1000 g for 20 min. The supernatant was recentrifuged at 27500 g for 30 min. Solid ammonium sulfate was added to the supernatant to give 32% saturation. Precipitated protein was pelleted at 25,000 g and then redissolved in a minimal volume of HEDS buffer plus 0.1 mM PMSF, 10 μg/ml leupeptin and soybean trypsin inhibitor, and 1 μg/ml pepstatin. The redissolved pellet was centrigued at 15000 g for 10 min. To the supernatant was added 1/20 volume of 2',5' ADP agarose resin (Sigma), and the slurry was mixed slowly overnight. In morning, slurry was packed into a column. The resin was sequentially washed with HEDS, 0.5M NaCl in HEDS, HEDS, and then NOS was eluted with 10 mM NADPH in HEDS. The enzyme could be concentrated by ultrafiltration and quick frozen and stored at -70° C. without loss in activity for at least 6 months.
Assay for human placental NOS
as §1

human brain NOS = target: T3, human brain NOS (Homo sapiens, UniProt P29475); experiment: Inhibition of human brain NOS (citrulline formation); conditions: Schmidt et al. 1991 procedure, 10 μM tetrahydrobiopterin included
T3 construct: Purification of NOS from human brain; from tissue; host or cells: frozen human brain; ammonium sulfate, 2',5' ADP-agarose, calmodulin-agarose
Procedure: Purification of NOS from human brain
Human brain NOS was prepared using variations of the procedures of Schmidt et al. (PNAS 88 365-369, 1991), Mayer et al. (Fed. Eur. Biochem. Soc. 288 187-191, 1991), and Bredt and Snyder, (PNAS 87 682-685, 1990). Briefly, frozen human brain (1050 gm) was homogenized in cold buffer A (50 mM HEPES, pH 7.5 (pH at RT) and 0.5 mM EDTA, 10 mM DTT, 3.6 L total volume) with a polytron. The mixture was centrifuged at 13,000 g for 1 hour and the supernatant was removed (about 2050 ml). To the supernatant, solid aimmonium sulfate (365 gm, about 30% of saturation) was added and stirred slowly for a total of 30 minutes. The precipitate was pelleted at 13,000 g for 30 minutes and the pellet was resuspended in ~400 mls of buffer A with 4 μM tetrahydrobiopterin, 1 μM FAD (Sigma), 1 μM FMN (Sigma). The solution was centrifuged at 41,000 g for 60 minutes. The supernatant was removed, frozen by pouring into liquid nitrogen, and stored overnight at -70° C. The mixture was thawed and passed through a 2',5' ADP-agarose column (0.4 g swelled in buffer A) at 4 ml/min. The column was washed with 100 ml buffer A, 200 ml buffer A with 500 mM NaCl, 100 ml Buffer A, then 30 ml buffer A with 5 mM NADPH. To the enzyme eluted from the column was added glycerol to 15%, CaCl2 to 1 mM, tetrahydrobiopterin to 10 μM, tween to 0.1% and FAD, FMN to 1 μM each. The enzyme was then passed through a 1 ml calmodulin-agarose column which had been equilibrated in Buffer A, 15% glycerol and 1 mM CaCl2. The column was washed with 15 ml Buffer A, 15% glycerol and 1 mM CaCl2, 15 ml of Buffer A, 15% glycerol and 5 mM EDTA, and then enzyme activity was eluted with 3 ml of Buffer A, 15% glycerol and 5 mM EDTA, 1 M NaCl. To the enzyme was added tetrahydrobiopterin to 10 μM, FAD and FMN to 1 μM, and tween to 0.1%. This solution was concentrated by centriprep-30 to a volume of approximately 500 μl. Human NOS was prepared completely analogously except the calmodulin-agarose column was not used. Enzyme activity was determined as described by Schmidt et al. 1991, except that 10 μM tetrahydrobiopterin was included in the assay.

Compound	Ki (inducible human NOS) [µM]	Ki (human placental NOS) [µM]	Ki (human brain NOS) [µM]
4-Acetamido-DL-phenylalanine [Compound 15]	> 50	> 50	> 50
CNC(=N)Nc1ccc(CC(N)C(=O)O)s1 (racemic) [Compound 1, 3-(5-N'-methylguanidino-2-thienyl)-DL-alanine]	> 50	≤ 10	≤ 50
N=C(N)Nc1ccc(CC(N)C(=O)O)s1 (racemic) [Compound 2, 3-(5-Guanidino-2-thienyl)-DL-alanine]	≤ 50	≤ 50	≤ 10
CCSC(=N)Nc1ccc(CC(N)C(=O)O)s1 (racemic) [Compound 4, 3-(5-S-ethylisothioureido-2-thienyl)-DL-alanine]	> 50	≤ 10	≤ 50
N=C(Nc1ccc(CC(N)C(=O)O)s1)NC1CC1 (racemic) [Compound 5, 3-(5-N'-cyclopropylguanidino-2-thienyl)-DL-alanine]	> 50	≤ 10	≤ 10
N=C(N)Nc1cccc(CC(N)C(=O)O)c1 (racemic) [Compound 12, 3-guanidino-DL-phenylalanine]	> 50	≤ 50	≤ 50
N=C(N)Nc1ccc(CC(N)C(=O)O)cc1 (racemic) [Compound 13, 4-Guanidino-DL-phenylalanine]	> 50	> 50	> 50
CC(=N)Nc1cccc(CC(N)C(=O)O)c1 (racemic) [Compound 14, 3-acetamidino-DL-phenylalanine]	> 50	> 50	> 50
CNC(N)=Nc1cccc(CC(N)C(=O)O)c1 (racemic) [Compound 16, 3-N-methylguanidino-DL-phenylalanine]	> 50	≤ 10	≤ 10
CNC(=N)Nc1ccc(CC(N)C(=O)O)cc1 (racemic) [Compound 17, 4-N-methylguanidino-DL-phenylalanine]	> 50	≤ 50	≤ 50
CNC(=N)NCc1ccc(CC(N)C(=O)O)s1 (racemic) [Compound 20, 3-(5-(N'-methylguanidino)methyl)-2-thienyl)-DL-alanine]	> 50	> 50	> 50
N=C(NCc1ccc(CC(N)C(=O)O)s1)NC1CC1 (racemic) [Compound 21, 3-(5-(N'-cyclopropylguanidino)methyl)-2-thienyl)-DL-alanine]	> 50	> 50	> 50
CSC(=N)NCc1ccc(CC(N)C(=O)O)s1 (racemic) [Compound 22, 3-(5-((S-methylisothioureido)methyl)-2-thienyl-DL-alanine]	> 50	> 50	> 50
CSC(=N)NCc1ccc(C(N)C(=O)O)s1 (racemic) [Compound 24]	> 50	> 50	> 50
CCSC(=N)NCc1ccc(C(N)C(=O)O)s1 (racemic) [Compound 25]	≤ 10	≤ 50	≤ 10
CSC(=N)Nc1cccc(CC(N)C(=O)O)c1 (racemic) [Compound 26, 3-(S-methylisothioureido)-DL-phenylalanine]	≤ 50	≤ 10	≤ 10
CCSC(=N)Nc1cccc(CC(N)C(=O)O)c1 (racemic) [Compound 27, 3-(S-ethylisothioureido)-DL-phenylalanine]	≤ 10	≤ 10	≤ 1

Next, values leading:

Ki (inducible human NOS) [µM]	Ki (human placental NOS) [µM]	Ki (human brain NOS) [µM]	Compound
≤ 10	≤ 0.5	≤ 0.5	NC(N)=Nc1ccccc1CC(N)C(=O)O (racemic) [Compound 3, 2-Guanidino-DL-phenylalanine]
≤ 10	≤ 10	≤ 10	C=CCNC(=N)Nc1ccc(CC(N)C(=O)O)s1 (racemic) [Compound 6, 3-(5-N'-allylguanidino-2-thienyl)-DL-alanine]
≤ 10	≤ 10	≤ 10	NC(=S)Nc1ccccc1CC(N)C(=O)O (racemic) [Compound 7, 2-thioureido-DL-phenylalanine]
≤ 10	≤ 1	≤ 1	CSC(=N)Nc1ccccc1CC(N)C(=O)O (racemic) [Compound 8, 2-(S-methylisothioureido)-DL-phenylalanine]
≤ 1	≤ 0.5	≤ 0.5	CCSC(=N)Nc1ccccc1CC(N)C(=O)O (racemic) [Compound 9, 2-(S-ethylisothioureido)-DL-phenylalanine]
≤ 1	≤ 0.5	≤ 0.5	C/N=C(/N)Nc1ccccc1CC(N)C(=O)O (racemic) [Compound 10, 2-(N'-methylguanidino)-DL-phenylalanine]
≤ 1	≤ 0.5	≤ 1	NC(=NC1CC1)Nc1ccccc1CC(N)C(=O)O (racemic) [Compound 11, 2-(N'-cyclopropylguanidino)-DL-phenylalanine]
≤ 10	≤ 50	≤ 50	CC(=N)Nc1ccc(CC(N)C(=O)O)s1 (racemic) [Compound 18, 3-(5-(1-iminoethyl)amino)-2-thienyl)-DL-alanine]
≤ 10	≤ 10	–	CC(=N)Nc1ccccc1CC(N)C(=O)O (racemic) [Compound 19, 2-((1-iminoethyl)amino)-DL-phenylalanine]
≤ 10	≤ 10	≤ 10	CCSC(=N)NCc1ccc(CC(N)C(=O)O)s1 (racemic) [Compound 23, 3-(5-((S-ethylisothioureido)methyl)-2-thienyl)-DL-alanine]
